Data reported in US6670382B2, “Hydroxyformamidine derivatives and medicines containing the same” (Taisho Pharmaceutical Co., Ltd., priority 2000, dated 2003).

How the values were obtained:
[1] = system: 20-HETE synthase derived from rat kidney microsome; assay: Inhibitory effect of 20-HETE synthase derived from rat kidney microsome; assay type: biochemical; settings: SHR rat kidney microsome; for Inhibition (1 µM): inhibition rate of 20-HETE production, subject compound 1 μM, 3H-arachidonic acid, NADPH, 1.5 hours at 37° C., pH 7.4; for IC50: concentration at which 20-HETE production was inhibited to 50%
Procedure: [Inhibitory Effect of 20-HETE Synthase Derived from Rat Kidney Microsome]
Regarding the compounds listed in the Table described above, their inhibitory activities on production of 20-HETE were examined.
This examination was carried out based on the method described in J. Pharmacol. Exp. Ther., Vol. 268, p. 474 (1994).
The subject compound in an amount of 1 μM was added to a 50 mM of 3-morpholinopropanesulfonic acid buffer (MOPS) (pH 7.4), containing 5 mM of magnesium chloride, and 1 mM of ethylenediaminetetraacetic acid (EDTA) disodium salt.
Subsequently, the rat kidney microsome fraction prepared from the kidney of a spontaneously hypertensive rat (male, 6 weeks of age) as an enzyme, [5,6,8,9,11,12,14,15] tritium-arachidonic acid (supplied by Amasham) as a substrate, and NADPH (supplied by Sigma) as a coenzyme were added, and were reacted for 1.5 hours at 37° C.
After the reaction was quenched by adding formic acid (supplied by Wako Pure Chemical Industries Ltd.) to the reaction solution, acetonitrile (final concentration of 50%) was added thereto, and the mixture was allowed to stand for 1.5 hours at room temperature. The amount of 20-HETE production was measured by using a high performance liquid chromatography having a detector for radioactive substances (supplied by Gilson), equipped with an ODS column (Biocyl C18, supplied by Bio-rad).
Setting an amount of 20-HETE production to 100% when no subject compound was added, the inhibition rate (%) was calculated from the amount of 20-HETE production when a subject compound was added.
In addition, setting an amount of 20-HETE production to 100% when no subject compound was added, the concentration of the subject compound at which the production of the 20-HETE was inhibited to 50% when the subject compound is added (IC50 value) was also calculated.

| melting point | IC50 [1] | Compound | Inhibition (1 µM) [1] |
| --- | --- | --- | --- |
| – | – | CCOC(=O)CSc1ccc(N/C=N/O)cn1 [Comp. 103] | 79.9% |
| 122 °C (dec.) | – | CCN(CC)CCCC(C)Oc1ccc(N/C=N/O)cn1 (centres unmarked) [Comp. 130] | – |
| – | 27.2 nM | O/N=C/Nc1ccc(OCC2CCC2)nc1 [Comp. 26] | 99.0% |
| – | 9.3 nM | O/N=C/Nc1ccc(OCc2cccs2)nc1 [Comp. 15] | 100.0% |
| – | – | O/N=C/Nc1ccc(SC2CCCCC2)nc1 [Comp. 101] | 91.8% |
| 153.5 to 154.5 °C | – | CN(C)CCSc1ccc(N/C=N/O)cn1 [Comp. 126] | – |
| – | 2.7 nM | O/N=C/Nc1ccc(OCCCOc2ccccc2)nc1 [Comp. 36] | 104.0% |
| 120 to 122 °C | 5.9 nM | C=CCCCOc1ccc(N/C=N/O)cn1 [Comp. 54] | 111.7% |
| – | – | CC(C)=CCC/C(C)=C\COc1ccc(N/C=N/O)cn1 [Comp. 51] | 111.0% |
| 149.5 to 152.5 °C | 58.1 nM | O/N=C/Nc1ccc(OCC2CCCCO2)nc1 (centres unmarked) [Comp. 97] | 85.5% |
| – | – | COC(=O)CCSc1ccc(N/C=N/O)cn1 [Comp. 116] | 93.1% |
| 159.5 to 161 °C | 6.5 nM | COc1ccccc1CCOc1ccc(N/C=N/O)cn1 [Comp. 69] | 102.8% |
| 114 to 115 °C | 140 nM | O/N=C/Nc1ccc(OCC2CCCO2)nc1 (centres unmarked) [Comp. 96] | 92.3% |
| – | 2.1 nM | Cc1ncsc1CCOc1ccc(N/C=N/O)cn1 [Comp. 17] | 100.0% |
| 128.5 to 130 °C | 14.9 nM | O/N=C/Nc1ccc(OCCc2ccccn2)nc1 [Comp. 5] | – |
| – | – | CCCCCSc1ccc(N/C=N/O)cn1 [Comp. 112] | 101.5% |
| – | – | CCCCCCSc1ccc(N/C=N/O)cn1 [Comp. 113] | 81.3% |
| – | 2.1 nM | O/N=C/Nc1ccc(OCCCc2cccnc2)nc1 [Comp. 33] | 93.0% |
| – | – | CCN(CCOc1ccc(N/C=N/O)cn1)c1cccc(C)c1 [Comp. 85] | 100.8% |
| – | 3.9 nM | O/N=C/Nc1ccc(OCc2ccncc2)nc1 [Comp. 23] | 104.0% |
| – | – | CCOC(=O)CCCCCOc1ccc(N/C=N/O)cn1 [Comp. 68] | 102.6% |

| melting point | IC50 [1] | Compound | Inhibition (1 µM) [1] |
| --- | --- | --- | --- |
| – | – | CC(C)=CCOc1ccc(N/C=N/O)cn1 [Comp. 18] | 86.0% |
| – | – | C/C=C/C=C/COc1ccc(N/C=N/O)cn1 [Comp. 58] | 106.6% |
| – | 24 nM | CC1(C)OCC(COc2ccc(N/C=N/O)cn2)O1 (centres unmarked) [Comp. 13] | 101.0% |
| – | – | O/N=C/Nc1ccc(OCCSc2ccccc2)nc1 [Comp. 95] | 96.5% |
| – | – | O/N=C/Nc1ccc(OCCCCc2ccccc2)nc1 [Comp. 71] | 99.0% |
| – | 4.3 nM | O/N=C/Nc1ccc(OCCn2cccc2)nc1 [Comp. 90] | 105.7% |
| – | 9.9 nM | CCSCCOc1ccc(N/C=N/O)cn1 [Comp. 28] | 105.0% |
| – | – | CC(C)CCSc1ccc(N/C=N/O)cn1 [Comp. 106] | 77.5% |
| – | 624 nM | CCN(CC)CCOCCOc1ccc(N/C=N/O)cn1 [Comp. 122] | 99.6% |
| – | – | O/N=C/Nc1ccc(OCc2ccccc2CCc2ccccc2)nc1 [Comp. 75] | 88.5% |
| – | – | CCC(C)CCOc1ccc(N/C=N/O)cn1 (centres unmarked) [Comp. 48] | 102.8% |
| – | – | O/N=C/Nc1ccc(SCc2ccc(Cl)cc2)nc1 [Comp. 100] | 79.5% |
| – | – | CCN(CC)CCOc1ccc(N/C=N/O)cn1 [Comp. 16] | 60.0% |
| – | – | COC(=O)COc1ccc(N/C=N/O)cn1 [Comp. 86] | 82.6% |
| – | – | COC(=O)CSc1ccc(N/C=N/O)cn1 [Comp. 108] | 89.7% |
| – | – | CCCCCCCCCSc1ccc(N/C=N/O)cn1 [Comp. 115] | 89.0% |
| 91 to 93 °C | – | CC(C)(COc1ccc(N/C=N/O)cn1)CN1CCCCC1 [Comp. 134] | – |
| – | – | Cc1ccc(CCOc2ccc(N/C=N/O)cn2)cc1 [Comp. 60] | 109.9% |
| – | – | CCOC(=O)CCSc1ccc(N/C=N/O)cn1 [Comp. 118] | 100.7% |
| – | – | COc1ccc(CCCOc2ccc(N/C=N/O)cn2)cc1 [Comp. 64] | 100.7% |
| – | 8.5 nM | O/N=C/Nc1ccc(OCc2ccsc2)nc1 [Comp. 38] | 95.0% |

| melting point | IC50 [1] | Compound | Inhibition (1 µM) [1] |
| --- | --- | --- | --- |
| – | – | O/N=C/Nc1ccc(OCC2CC2)nc1 [Comp. 21] | 73.0% |
| – | – | CCCCCCCOc1ccc(N/C=N/O)cn1 [Comp. 43] | 89.5% |
| – | 2.7 nM | O/N=C/Nc1ccc(OCC2CCCCC2)nc1 [Comp. 11] | 89.0% |
| – | – | O/N=C/Nc1ccc(OCc2ccc(Cl)cc2Cl)nc1 [Comp. 74] | 69.3% |
| – | – | COc1ccc(CCCOc2ccc(N/C=N/O)cn2)cc1OC [Comp. 63] | 102.3% |
| – | 7.6 nM | CC1(C)COC(CCOc2ccc(N/C=N/O)cn2)OC1 [Comp. 34] | 89.0% |
| – | – | CC(C)(C)CCOc1ccc(N/C=N/O)cn1 [Comp. 30] | 102.0% |
| – | – | CC(C)=CCCC(C)CCOc1ccc(N/C=N/O)cn1 (centres unmarked) [Comp. 70] | 108.1% |
| – | – | O/N=C/Nc1ccc(OCCCCC2CCCCC2)nc1 [Comp. 29] | 101.0% |
| – | – | Cc1cccc(COc2ccc(N/C=N/O)cn2)c1 [Comp. 79] | 100.6% |
| – | – | Cc1cccc(COc2ccc(N/C=N/O)cn2)n1 [Comp. 41] | 83.0% |
| – | – | CCCCCCCCOc1ccc(N/C=N/O)cn1 [Comp. 44] | 100.7% |
| – | – | CC(C)=CCC/C(C)=C/COc1ccc(N/C=N/O)cn1 [Comp. 52] | 108.7% |
| – | – | O/N=C/Nc1ccc(OCCOC2CCCCC2)nc1 [Comp. 27] | 71.0% |
| – | – | CCCCCCOc1ccc(N/C=N/O)cn1 [Comp. 42] | 105.8% |
| – | 87.2 nM | COCCOCCOc1ccc(N/C=N/O)cn1 [Comp. 12] | 99.0% |
| – | – | C#CCCOc1ccc(N/C=N/O)cn1 [Comp. 20] | 31.0% |
| 105 to 106 °C | – | CN(C)CCOc1ccc(N/C=N/O)cn1 [Comp. 131] | – |
| – | – | O/N=C/Nc1ccc(OCCCCCc2ccccc2)nc1 [Comp. 50] | 108.2% |
| – | – | O/N=C/Nc1ccc(OCC2CC3CCC2C3)nc1 (centres unmarked) [Comp. 35] | 98.0% |
| – | – | O/N=C/Nc1ccc(OCc2ccc(-c3ccccc3)cc2)nc1 [Comp. 84] | 105.3% |

| melting point | IC50 [1] | Compound | Inhibition (1 µM) [1] |
| --- | --- | --- | --- |
| – | – | CCCCSc1ccc(N/C=N/O)cn1 [Comp. 105] | 100.5% |
| – | 49.6 nM | O/N=C/Nc1ccc(OCc2ccco2)nc1 [Comp. 3] | 102.0% |
| – | – | CC(C)CCCOc1ccc(N/C=N/O)cn1 [Comp. 49] | 107.1% |
| – | – | O/N=C/Nc1ccc(OCc2ccoc2)nc1 [Comp. 40] | 86.0% |
| – | 9.6 nM | O/N=C/Nc1ccc(OCCSc2ccccn2)nc1 [Comp. 25] | 71.0% |
| – | 1.5 nM | O/N=C/Nc1ccc(OCCCc2ccccc2)nc1 [Comp. 14] | 104.0% |
| – | – | COC(=O)c1ccc(COc2ccc(N/C=N/O)cn2)cc1 [Comp. 83] | 98.8% |
| – | – | O/N=C/Nc1ccc(OCC2CCCCCC2)nc1 [Comp. 57] | 114.2% |
| – | – | O/N=C/Nc1ccc(OCCc2ccc(Br)cc2)nc1 [Comp. 67] | 108.6% |
| – | – | Cn1c(=O)c2c(ncn2CCOc2ccc(N/C=N/O)cn2)n(C)c1=O [Comp. 88] | 71.8% |
| – | – | CCCCCCCSc1ccc(N/C=N/O)cn1 [Comp. 114] | 85.1% |
| 153.5 to 155.5 °C | – | O/N=C/Nc1ccc(OCc2ccccn2)nc1 [Comp. 6, N-[2-(pyridin-2-ylmethoxy)pyridin-5-yl]-N′-hydroxyformamidine] | – |
| 109 to 111 °C | – | CCN(CC)CCC(Oc1ccc(N/C=N/O)cn1)C(F)(F)F (centres unmarked) [Comp. 129] | – |
| – | – | O/N=C/Nc1ccc(OCc2cccc(Oc3ccccc3)c2)nc1 [Comp. 76] | 100.2% |
| – | 3.4 nM | O/N=C/Nc1ccc(OCCCc2ccncc2)nc1 [Comp. 37] | 96.0% |
| – | – | CC(C)OCCOc1ccc(N/C=N/O)cn1 [Comp. 19] | 104.0% |
| – | 2.1 nM | O/N=C/Nc1ccc(OCCC2CCCCC2)nc1 [Comp. 22] | 108.0% |
| – | – | CC(C)(C)COc1ccc(N/C=N/O)cn1 [Comp. 39] | 62.0% |
| – | – | CC(=O)OCCOc1ccc(N/C=N/O)cn1 [Comp. 62] | 112.8% |
